One assay addresses T1, P. falciparum DHODH (Plasmodium falciparum, UniProt Q08210).
T1 construct: His6 (N); made in house; host or cells: E. coli BL21-DE3 (phage-resistant)
The assay can be described thus: DHODH inhibition, steady-state DCIP assay (PfDHODH). Format: biochemical. To be noted: recombinant PfDHODH, DCIP method, 25°C, 5 nM enzyme. How it is done:
(§1) Compound stocks were prepared at 10-100 mM in DMSO, and diluted working stocks in DMSO were generated as appropriate. Compounds were plated from DMSO stocks in 96 well plate format using a Tecan D300e digital dispenser to generate a 3-fold dilution series over a concentration range of 0.0003 -100 µM (or 30 µM), yielding a final DMSO concentration of 1% in the assay. The top concentration used in the dose response was determined by the initial DMSO stock concentrations:100 µM for 100 mM stocks, and 30 µM for 10 mM stocks. Triplicate rate data were collected at each inhibitor concentration. Inhibitory IC50 values were determined by fitting the data to log (inhibitor) vs response equation Y = bottom + (top - bottom)/(1 + 10A ((X - Log IC50))) in GraphPad Prism.

For another assay, the system named is P. falciparum 3D7. The experiment in a line: Asexual blood-stage growth inhibition assay, SYBR green method. The assay is classed as cell-based. To be noted: Plasmodium falciparum, 3D7, 72 h, ring-stage 3D7 parasites. How it is done:
Asexual blood-stage EC50 assays. […] Compound stocks prepared in DMSO were plated using a Tecan D300e automated low volume liquid handler. Ring-stage 3D7 or Dd2 parasites (60 µL cells) (2% hematocrit, 0.5% parasitemia, final DMSO concentration 0.5%) were added to plates, incubated with compounds over a range of concentrations in technical triplicate for 72 h at 37 °C, 5% CO2, and then frozen (-80°C) overnight before analysis. […] Data were analyzed by non-linear regression using GraphPad Prism to determine the EC50 by fitting to the built-in equation (log(inhibitor) vs response-variable slope with four parameters).

A further assay has as its target P. vivax DHODH (Plasmodium vivax, UniProt A5K1N1). The assay can be described thus: DHODH inhibition, steady-state DCIP assay (PvDHODH). The following applies: recombinant PvDHODH, DCIP method, 25°C, 5 nM enzyme; read-out: P. vivax DHODH (IC50). Format: biochemical.
Description: (§2) DOI: 10.1074/jbc.M206854200).
(§3) Proteins were expressed and purified on a Pharmacia FPLC using HisTrap HP column chromatography followed by gel filtration chromatography on a Pharmacia HiLoad 16/600 Superdex 200 column, and protein concentration determined based on OD280 using the previously described extinction coefficients (Kokkonda et al., 2020, J Med Chem, 63 (9), 4929-4956. DOI: 10.1021/acs.jmedchem.0c00311). Purified proteins were >95% pure based on SDS-PAGE analysis.
(§4) DHODH activity was monitored in a steady-state assay using the 2,6-dichloroindophenol (DCIP) method at 25°C in assay buffer (100 mM HEPES, pH 8.0, 150 mM NaCl, 1% glycerol, 0.1% Triton X-100 reduced) plus substrates 20 µM CoQD, 200 µM DHO, 120 µM DCIP, and 5 nM enzyme as previously described (Malmquist et al, 2008, Biochemistry, 47 (8), 2466-2475. DOI: 10.1021/bi702218c).
as §1, with “Prism. DSM265 ^2 was plated as an assay control in all studies.” for “Prism.”

The next assay deals with T2, Human DHODH (Homo sapiens, UniProt Q02127).
T2 construct: C-terminal His6-tagged HsDHODH residues 29-395 in pET-22b (start ^29MATGDE); His6 (C); made in house; host or cells: E. coli BL21-DE3 (phage-resistant)
T2 sequence (Q02127 29-395): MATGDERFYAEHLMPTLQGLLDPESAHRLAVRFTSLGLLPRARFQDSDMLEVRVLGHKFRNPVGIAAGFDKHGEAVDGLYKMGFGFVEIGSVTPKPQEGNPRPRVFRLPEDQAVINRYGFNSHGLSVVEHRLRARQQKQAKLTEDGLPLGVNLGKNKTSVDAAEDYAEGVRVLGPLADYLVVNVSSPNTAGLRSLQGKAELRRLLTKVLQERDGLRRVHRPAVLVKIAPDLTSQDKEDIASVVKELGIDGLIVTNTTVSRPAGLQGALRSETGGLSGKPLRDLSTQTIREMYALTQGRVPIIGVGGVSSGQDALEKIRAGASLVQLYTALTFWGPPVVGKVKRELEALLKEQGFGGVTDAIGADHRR
The experiment in a line: DHODH inhibition, steady-state DCIP assay (human DHODH). The assay is classed as biochemical. To be noted: recombinant HsDHODH, DCIP method, 25°C, 5 nM enzyme; top concentration 100 µM or 30 µM.
Description: as §2, §3, §4
as §1, with “Prism. DSM265 ^2 was plated as an assay control in all studies.” for “Prism.”

T1 sequence (Q08210 158-569): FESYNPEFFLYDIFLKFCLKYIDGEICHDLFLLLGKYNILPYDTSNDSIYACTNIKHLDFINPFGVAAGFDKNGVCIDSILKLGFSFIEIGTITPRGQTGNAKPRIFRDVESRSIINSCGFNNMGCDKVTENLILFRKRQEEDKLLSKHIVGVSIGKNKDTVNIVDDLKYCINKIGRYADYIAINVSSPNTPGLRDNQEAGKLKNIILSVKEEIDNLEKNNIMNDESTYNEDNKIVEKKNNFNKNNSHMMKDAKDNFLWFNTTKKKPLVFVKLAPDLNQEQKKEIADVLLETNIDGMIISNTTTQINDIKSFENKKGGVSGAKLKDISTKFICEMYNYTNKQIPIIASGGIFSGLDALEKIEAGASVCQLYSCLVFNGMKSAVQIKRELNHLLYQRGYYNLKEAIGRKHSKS
Sequence of P. vivax DHODH (A5K1N1 entry or part of it): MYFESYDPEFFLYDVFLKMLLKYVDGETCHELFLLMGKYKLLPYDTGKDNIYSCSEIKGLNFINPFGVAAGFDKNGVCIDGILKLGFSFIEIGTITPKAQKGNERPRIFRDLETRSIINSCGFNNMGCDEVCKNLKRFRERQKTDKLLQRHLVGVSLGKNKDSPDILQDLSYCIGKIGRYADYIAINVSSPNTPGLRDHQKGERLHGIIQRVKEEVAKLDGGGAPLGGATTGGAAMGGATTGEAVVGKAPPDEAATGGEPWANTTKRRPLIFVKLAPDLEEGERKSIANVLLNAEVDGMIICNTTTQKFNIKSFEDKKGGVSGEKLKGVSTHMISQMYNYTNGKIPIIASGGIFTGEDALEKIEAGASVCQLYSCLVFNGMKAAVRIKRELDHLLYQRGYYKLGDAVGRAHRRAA

The IC50 is the concentration needed to halve the response being measured. As usually defined, the EC50 is the concentration at which the effect is half-maximal. For the molecule `CC[C@@](O)(c1cnc(C(F)(F)F)c(Cl)c1)c1c2cnn(C3CC3)c(=O)c2nn1C1CC1` (single isomer, unassigned) [2-1], the values for the IC50 on P. falciparum DHODH, on P. vivax DHODH and on Human DHODH were 29 nM, 10 nM and 2300 nM, respectively. In the assay on P. falciparum 3D7, the concentration giving a half-maximal response (EC50) worked out at 12 nM.
`Cn1nc2c(=O)n(C3CC3)ccc2c1[C@](O)(c1ccc(F)c(Cl)c1)C(F)(F)F` (single isomer, unassigned) [5-9]: the half-maximal inhibitory concentration (IC50) was 14 nM at P. falciparum DHODH, 9.8 nM on P. vivax DHODH and 9200 nM at Human DHODH. In the assay on P. falciparum 3D7, this molecule displayed an EC50 of 0.52 nM.
On to `Cn1nc2c(=O)n(C3CC3)cnc2c1[C@](O)(c1cnc(C(F)(F)F)c(Cl)c1)C(F)F` (single isomer, unassigned) [5-22], for which the concentration for half-maximal inhibition (IC50) amounted to 11 nM on P. falciparum DHODH, 7.7 nM on P. vivax DHODH and 22000 nM at Human DHODH. Besides, the concentration for a half-maximal effect (EC50) in the assay with P. falciparum 3D7 was determined as 6.1 nM.
The like results for `Cn1nc2c(=O)n(C3CC3)ccc2c1[C@](C)(N)c1ccc(C(F)(F)F)c(Cl)c1` (single isomer, unassigned) [4-4] were, in that order, 12 nM, 9 nM, 15000 nM and 0.61 nM.
On the same counts, the results for `CCn1ccc2c([C@](C)(O)c3ccc(F)c(Cl)c3)n(C)nc2c1=O` (single isomer, unassigned) [1-40] are 17 nM, 5.2 nM, 80000 nM and 0.42 nM.
On the same counts, the results for `CCn1ccc2c([C@@](O)(CC)c3ccc(F)c(Cl)c3)n(C)nc2c1=O` (single isomer, unassigned) [1-34] are 21 nM, 4.1 nM, 3900 nM and 0.3 nM.
Regarding `CC[C@@](N)(c1cnc(C(F)(F)F)c(Cl)c1)c1c2ncn(C3CC3)c(=O)c2nn1C` (single isomer, unassigned) [4-27], the concentration for half-maximal inhibition (IC50) on P. falciparum DHODH is 47 nM; on P. vivax DHODH, 40 nM; on Human DHODH, more than 30000 nM. Also, a half-maximal response with P. falciparum 3D7 (EC50) required 6.5 nM.
On the same counts, the results for `CC[C@@](O)(c1cnc(C(F)(F)F)c(Cl)c1)c1c2ccn(C3CC3)c(=O)c2nn1C` (single isomer, unassigned) [1-14] are 14 nM, 18 nM, 4200 nM and 0.64 nM.
For the molecule `CCn1ccc2c([C@](O)(c3ccc(C(F)(F)F)nc3)C(C)C)n(C)nc2c1=O` (single isomer, unassigned) [1-48], the results for the IC50 at P. falciparum DHODH, on P. vivax DHODH and at Human DHODH were 81 nM, 44 nM and more than 100000 nM, respectively. In the assay on P. falciparum 3D7, this molecule had an EC50 of 18 nM.
As to `CC[C@@](O)(c1ccc(F)c(Cl)c1)c1c2ccn(C3CC3)c(=O)c2nn1C` (single isomer, unassigned) [1-13], the values for the IC50 on P. falciparum DHODH, on P. vivax DHODH and on Human DHODH were 7 nM, 11 nM and 670 nM, respectively. In the assay on P. falciparum 3D7, this molecule displayed a concentration for a half-maximal effect (EC50) of 0.49 nM.
On the same counts, the results for `CCn1ccc2c([C@](C)(O)c3ccc(C(F)(F)F)c(Cl)c3)n(C)nc2c1=O` (single isomer, unassigned) [1-46] are 10 nM, 5.8 nM, 41000 nM and 0.2 nM.
The like results for `Cn1nc2c(=O)n(C3CC3)cnc2c1[C@](O)(c1ccc(C(F)(F)F)nc1)C1CC1` (single isomer, unassigned) [3-9] were, in that order, 48 nM, 59 nM, more than 30000 nM and 12 nM.
On the same counts, the results for `CCn1ccc2c([C@](O)(c3ccc(F)c(Cl)c3)C3CC3)n(C)nc2c1=O` (single isomer, unassigned) [1-38] are 17 nM, 4.3 nM, 88000 nM and 1.5 nM.
In the case of `CCn1cnc2c([C@](C)(O)c3ccc(C(F)(F)F)c(C#N)c3)n(C)nc2c1=O` (single isomer, unassigned) [3-11], the half-maximal inhibitory concentration (IC50) is 32 nM at P. falciparum DHODH, 9.4 nM at P. vivax DHODH and more than 100000 nM at Human DHODH. In the assay with P. falciparum 3D7, the EC50 came out at 0.52 nM.
In the case of `Cn1nc2c(=O)n(C3CC3)ccc2c1[C@](N)(c1cnc(C(F)(F)F)c(Cl)c1)C(F)(F)F` (single isomer, unassigned) [4-1], the concentration for half-maximal inhibition (IC50) at P. falciparum DHODH is 21 nM; at P. vivax DHODH, 13 nM; on Human DHODH it was more than 30000 nM. In the assay on P. falciparum 3D7, this molecule showed a concentration giving a half-maximal response (EC50) of 2.6 nM.
The like results for `Cn1nc2c(=O)n(C3CC3)ccc2c1[C@](O)(c1cnc(C(F)(F)F)c(Cl)c1)C1CC1` (single isomer, unassigned) [1-16] were, in that order, 16 nM, 23 nM, more than 30000 nM and 3.2 nM.
On the same counts, the results for `Cn1nc2c(=O)n(C3CC3)cnc2c1[C@](O)(c1ccc(C(F)(F)F)nc1)C(F)(F)F` (single isomer, unassigned) [5-21] are 31 nM, 29 nM, more than 30000 nM and 2.1 nM.
On the same counts, the results for `CCC(O)(c1cnc(C(F)(F)F)c(Cl)c1)c1c2cc(C)n(C3CC3)c(=O)c2nn1C` (stereo not drawn) [1-7, 3-(1-(5-chloro-6-(trifluoromethyl)pyridin-3-yl)-1-hydroxypropyl)-6-cyclopropyl-2,5-dimethyl-2,6-dihydro-7H-pyrazolo[3,4-c]pyridin-7-one] are 60 nM, 26 nM, 14000 nM and 6.5 nM.
As to `CCn1ccc2c([C@@](O)(CC)c3ccc(C(F)(F)F)nc3)n(C)nc2c1=O` (single isomer, unassigned) [1-50], the IC50 on P. falciparum DHODH is 54 nM; on P. vivax DHODH it was 27 nM; on Human DHODH it was 46000 nM. The molecule further gave an EC50 with P. falciparum 3D7 of 1.5 nM.
For the molecule `CCn1cc(C)c2c([C@H](N)c3ccc(C(F)(F)F)c(C#N)c3)n(C)nc2c1=O` (single isomer, unassigned) [4-14], the 50% inhibitory concentration (IC50) at P. falciparum DHODH is 83 nM; on P. vivax DHODH it was 39 nM; at Human DHODH, more than 100000 nM. This molecule yielded an EC50 in the assay on P. falciparum 3D7 of 16 nM.
Regarding `Cn1nc2c(=O)n(C3CC3)cnc2c1[C@](O)(c1ccc(C(F)(F)F)c(Cl)c1)C(F)(F)F` (single isomer, unassigned) [5-17], the half-inhibitory concentration (IC50) was 4.6 nM on P. falciparum DHODH, 6.1 nM at P. vivax DHODH and 5600 nM at Human DHODH. The molecule further gave a concentration for a half-maximal effect (EC50) in the assay on P. falciparum 3D7 of 0.046 nM.
On the same counts, the results for `CCn1cc(C2CC2)c2c([C@H](O)c3cnc(C(F)(F)F)c(Cl)c3)n(C)nc2c1=O` (single isomer, unassigned) [1-28] are 26 nM, 11 nM, more than 100000 nM and 4.6 nM.
For `CC[C@@](O)(c1ccc(C(F)(F)F)c(C#N)c1)c1c2cnn(C3CC3)c(=O)c2nn1C` (single isomer, unassigned) [2-5], the half-inhibitory concentration (IC50) on P. falciparum DHODH came to 19 nM; at P. vivax DHODH, 19 nM; at Human DHODH, 4800 nM. This molecule yielded an EC50 with P. falciparum 3D7 of 1.3 nM.
For the molecule `CC[C@@](O)(c1ccc(C(F)(F)F)c(C#N)c1)c1c2ccn(C3CC3)c(=O)c2nn1C` (single isomer, unassigned) [1-5], the figures for the 50% inhibitory concentration (IC50) on P. falciparum DHODH, at P. vivax DHODH and at Human DHODH were 17 nM, 21 nM and 910 nM, respectively. In the assay with P. falciparum 3D7, a half-maximal effect (EC50) was put at 0.75 nM.

Values taken from patent EP4680608B1, “2,6-DIHYDRO-7H-PYRAZOLO[3,4-C]PYRIDIN-7-ONE DERIVATIVES AS ANTI-MALARIAL AGENTS” (MMV Medicines for Malaria Venture, priority 2024, dated 2025).
